# Test results reported in ChEMBL document CHEMBL2417447, “Synthesis and binary QSAR study of antitubercular quinolylhydrazides” (2013).
# What was measured:
# [1] = test system: Mycobacterium tuberculosis; assay: Antitubercular activity against Mycobacterium tuberculosis H37Rv ATCC 27294 after 5 to 8 days by microplate alamar blue assay; assay type: functional
# [2] = test system: Mycobacterium tuberculosis; assay: Antimycobacterial activity against Mycobacterium tuberculosis H37Rv ATCC 27294 assessed as growth inhibition at 6.25 ug/ml after 5 to 8 days by microplate alamar blue assay relative to control; assay type: functional; details: read-out: GI
SMILES,MIC [1] [µg/mL],inhibition of growth at 6.25 µg/mL [2] [%]
O=C1Nc2c(cccc2[N+](=O)[O-])C(=O)/C1=N/Nc1ccc(F)c(Cl)c1,< 6.25,85
O=C1Nc2c(cccc2[N+](=O)[O-])C(=O)/C1=N/Nc1ccccc1,< 6.25,99
CN1C(=O)/C(=N\Nc2ccccc2[N+](=O)[O-])C(=O)c2ccccc21,< 6.25,94
COc1ccc(N/N=C2\C(=O)Nc3ccc(Cl)cc3C2=O)cc1,< 6.25,55
